{
  "source": "patent US8192962B2",
  "about": "“Processes for detecting toxic substances” (Daikin Industries, Ltd., priority 2001, dated 2012)",
  "tested_on": "Energy system protein genes",
  "experiment": "DNA chip mRNA expression in yeast, energy system protein genes (Table 4)",
  "type": "cell-based, Saccharomyces cerevisiae S288C",
  "summary_of_the_method": "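Untreated cultures served as reference for log-phase S288C yeast given a growth-inhibiting, non-lethal toxicant dose for 2 h at 25° C. in YPD. Gene expression was measured on a whole-genome DNA chip from Cy3/Cy5-labeled cDNA.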",
  "data": [
    {"smiles": "N#Cc1c(Cl)c(Cl)c(Cl)c(C#N)c1Cl", "note": "[(9), 2,4,5,6-tetrachloro-1,3-benzenedicarbonitrile]", "values": [
      {"measurement": "The level of expressed mRNA in the presence of chemical substance/The level of expressed mRNA in the absence of chemical substance", "setting": "yeast gene YAL054C", "value": 8.9},
      {"measurement": "The level of expressed mRNA in the presence of chemical substance/The level of expressed mRNA in the absence of chemical substance", "setting": "yeast gene YAL060W", "value": 0.6},
      {"measurement": "The level of expressed mRNA in the presence of chemical substance/The level of expressed mRNA in the absence of chemical substance", "setting": "yeast gene YBL058W, cells incubated two hours with the chemical substance", "value": 2.6},
      {"measurement": "The level of expressed mRNA in the presence of chemical substance/The level of expressed mRNA in the absence of chemical substance", "setting": "yeast gene YBL099W, cells incubated two hours with the chemical substance", "value": 0.9},
      {"measurement": "The level of expressed mRNA in the presence of chemical substance/The level of expressed mRNA in the absence of chemical substance", "setting": "yeast gene YBR001C, cells incubated two hours with the chemical substance", "value": 2.3},
      {"measurement": "The level of expressed mRNA in the presence of chemical substance/The level of expressed mRNA in the absence of chemical substance", "setting": "yeast gene YBR185C, cells incubated two hours with the chemical substance", "value": 0.9},
      {"measurement": "The level of expressed mRNA in the presence of chemical substance/The level of expressed mRNA in the absence of chemical substance", "setting": "yeast gene YBR221C, cells incubated two hours with the chemical substance", "value": 1.0},
      {"measurement": "The level of expressed mRNA in the presence of chemical substance/The level of expressed mRNA in the absence of chemical substance", "setting": "yeast gene YBR299W", "value": 1.1},
      {"measurement": "The level of expressed mRNA in the presence of chemical substance/The level of expressed mRNA in the absence of chemical substance", "setting": "yeast gene YCL040W", "value": 0.9},
      {"measurement": "The level of expressed mRNA in the presence of chemical substance/The level of expressed mRNA in the absence of chemical substance", "setting": "yeast gene YCR012W", "value": 1.4},
      {"measurement": "The level of expressed mRNA in the presence of chemical substance/The level of expressed mRNA in the absence of chemical substance", "setting": "yeast gene YCR046C, cells incubated two hours with the chemical substance", "value": 1.9},
      {"measurement": "The level of expressed mRNA in the presence of chemical substance/The level of expressed mRNA in the absence of chemical substance", "setting": "yeast gene YCR105W, cells incubated two hours with the chemical substance", "value": 2.0},
      {"measurement": "The level of expressed mRNA in the presence of chemical substance/The level of expressed mRNA in the absence of chemical substance", "setting": "yeast gene YDL021W", "value": 2.5},
      {"measurement": "The level of expressed mRNA in the presence of chemical substance/The level of expressed mRNA in the absence of chemical substance", "setting": "yeast gene YDL067C, cells incubated two hours with the chemical substance", "value": 0.9},
      {"measurement": "The level of expressed mRNA in the presence of chemical substance/The level of expressed mRNA in the absence of chemical substance", "setting": "yeast gene YDL078C, cells incubated two hours with the chemical substance", "value": 1.1},
      {"measurement": "The level of expressed mRNA in the presence of chemical substance/The level of expressed mRNA in the absence of chemical substance", "setting": "yeast gene YDL107W, cells incubated two hours with the chemical substance", "value": 1.2},
      {"measurement": "The level of expressed mRNA in the presence of chemical substance/The level of expressed mRNA in the absence of chemical substance", "setting": "yeast gene YDL174C", "value": 0.5},
      {"measurement": "The level of expressed mRNA in the presence of chemical substance/The level of expressed mRNA in the absence of chemical substance", "setting": "yeast gene YDL181W, cells incubated two hours with the chemical substance", "value": 0.7},
      {"measurement": "The level of expressed mRNA in the presence of chemical substance/The level of expressed mRNA in the absence of chemical substance", "setting": "yeast gene YDR001C", "value": 2.2},
      {"measurement": "The level of expressed mRNA in the presence of chemical substance/The level of expressed mRNA in the absence of chemical substance", "setting": "yeast gene YDR050C, cells incubated two hours with the chemical substance", "value": 0.4},
      {"measurement": "The level of expressed mRNA in the presence of chemical substance/The level of expressed mRNA in the absence of chemical substance", "setting": "yeast gene YDR079W, cells incubated two hours with the chemical substance", "value": 0.9},
      {"measurement": "The level of expressed mRNA in the presence of chemical substance/The level of expressed mRNA in the absence of chemical substance", "setting": "yeast gene YDR178W, cells incubated two hours with the chemical substance", "value": 0.9},
      {"measurement": "The level of expressed mRNA in the presence of chemical substance/The level of expressed mRNA in the absence of chemical substance", "setting": "yeast gene YDR231C", "value": 1.5},
      {"measurement": "The level of expressed mRNA in the presence of chemical substance/The level of expressed mRNA in the absence of chemical substance", "setting": "yeast gene YDR298C, cells incubated two hours with the chemical substance", "value": 1.0},
      {"measurement": "The level of expressed mRNA in the presence of chemical substance/The level of expressed mRNA in the absence of chemical substance", "setting": "yeast gene YDR377W, cells incubated two hours with the chemical substance", "value": 1.0},
      {"measurement": "The level of expressed mRNA in the presence of chemical substance/The level of expressed mRNA in the absence of chemical substance", "setting": "yeast gene YDR529C, cells incubated two hours with the chemical substance", "value": 0.5},
      {"measurement": "The level of expressed mRNA in the presence of chemical substance/The level of expressed mRNA in the absence of chemical substance", "setting": "yeast gene YEL024W, cells incubated two hours with the chemical substance", "value": 0.7},
      {"measurement": "The level of expressed mRNA in the presence of chemical substance/The level of expressed mRNA in the absence of chemical substance", "setting": "yeast gene YEL039C, cells incubated two hours with the chemical substance", "value": 1.2},
      {"measurement": "The level of expressed mRNA in the presence of chemical substance/The level of expressed mRNA in the absence of chemical substance", "setting": "yeast gene YER178W", "value": 1.7},
      {"measurement": "The level of expressed mRNA in the presence of chemical substance/The level of expressed mRNA in the absence of chemical substance", "setting": "yeast gene YFL057C", "value": 51.8},
      {"measurement": "The level of expressed mRNA in the presence of chemical substance/The level of expressed mRNA in the absence of chemical substance", "setting": "yeast gene YFR053C", "value": 0.6},
      {"measurement": "The level of expressed mRNA in the presence of chemical substance/The level of expressed mRNA in the absence of chemical substance", "setting": "yeast gene YGL018C, cells incubated two hours with the chemical substance", "value": 0.5},
      {"measurement": "The level of expressed mRNA in the presence of chemical substance/The level of expressed mRNA in the absence of chemical substance", "setting": "yeast gene YGL062W", "value": 1.6},
      {"measurement": "The level of expressed mRNA in the presence of chemical substance/The level of expressed mRNA in the absence of chemical substance", "setting": "yeast gene YGL187C, cells incubated two hours with the chemical substance", "value": 0.6},
      {"measurement": "The level of expressed mRNA in the presence of chemical substance/The level of expressed mRNA in the absence of chemical substance", "setting": "yeast gene YGL191W, cells incubated two hours with the chemical substance", "value": 1.1},
      {"measurement": "The level of expressed mRNA in the presence of chemical substance/The level of expressed mRNA in the absence of chemical substance", "setting": "yeast gene YGL205W, cells incubated two hours with the chemical substance", "value": 0.5},
      {"measurement": "The level of expressed mRNA in the presence of chemical substance/The level of expressed mRNA in the absence of chemical substance", "setting": "yeast gene YGL256W, cells incubated two hours with the chemical substance", "value": 0.4},
      {"measurement": "The level of expressed mRNA in the presence of chemical substance/The level of expressed mRNA in the absence of chemical substance", "setting": "yeast gene YGR008C", "value": 3.1},
      {"measurement": "The level of expressed mRNA in the presence of chemical substance/The level of expressed mRNA in the absence of chemical substance", "setting": "yeast gene YGR043C", "value": 10.9},
      {"measurement": "The level of expressed mRNA in the presence of chemical substance/The level of expressed mRNA in the absence of chemical substance", "setting": "yeast gene YGR062C, cells incubated two hours with the chemical substance, 25° C., YPD medium", "value": 1.0},
      {"measurement": "The level of expressed mRNA in the presence of chemical substance/The level of expressed mRNA in the absence of chemical substance", "setting": "yeast gene YGR087C, cells incubated two hours with the chemical substance", "value": 0.2},
      {"measurement": "The level of expressed mRNA in the presence of chemical substance/The level of expressed mRNA in the absence of chemical substance", "setting": "yeast gene YGR174C, cells incubated two hours with the chemical substance", "value": 1.8},
      {"measurement": "The level of expressed mRNA in the presence of chemical substance/The level of expressed mRNA in the absence of chemical substance", "setting": "yeast gene YGR192C", "value": 0.9},
      {"measurement": "The level of expressed mRNA in the presence of chemical substance/The level of expressed mRNA in the absence of chemical substance", "setting": "yeast gene YGR244C", "value": 1.4},
      {"measurement": "The level of expressed mRNA in the presence of chemical substance/The level of expressed mRNA in the absence of chemical substance", "setting": "yeast gene YGR254W", "value": 0.8},
      {"measurement": "The level of expressed mRNA in the presence of chemical substance/The level of expressed mRNA in the absence of chemical substance", "setting": "yeast gene YGR256W", "value": 3.4},
      {"measurement": "The level of expressed mRNA in the presence of chemical substance/The level of expressed mRNA in the absence of chemical substance", "setting": "yeast gene YHL008C", "value": 1.6},
      {"measurement": "The level of expressed mRNA in the presence of chemical substance/The level of expressed mRNA in the absence of chemical substance", "setting": "yeast gene YHR174W", "value": 1.0},
      {"measurement": "The level of expressed mRNA in the presence of chemical substance/The level of expressed mRNA in the absence of chemical substance", "setting": "yeast gene YHR179W", "value": 3.6},
      {"measurement": "The level of expressed mRNA in the presence of chemical substance/The level of expressed mRNA in the absence of chemical substance", "setting": "yeast gene YIL160C", "value": 3.2},
      {"measurement": "The level of expressed mRNA in the presence of chemical substance/The level of expressed mRNA in the absence of chemical substance", "setting": "yeast gene YIR031C, cells incubated two hours with the chemical substance", "value": 2.6},
      {"measurement": "The level of expressed mRNA in the presence of chemical substance/The level of expressed mRNA in the absence of chemical substance", "setting": "yeast gene YJL052W", "value": 1.6}
    ]}
  ]
}
